Experimental data: the NIST ThermoML archive (doi:10.1016/j.jct.2013.07.010)
± gives the expanded uncertainty stated by the source.

What was measured:
[1] = cn = amount concentration of the nth substance listed, in mol/dm3; settings: 101 kPa, Liquid; for viscosity: Capillary tube (Ostwald / Ubbelohde) method; for mass density: Vibrating tube method
[2] = 101 kPa, Liquid; for viscosity: Capillary tube (Ostwald / Ubbelohde) method; for mass density: Vibrating tube method

In the case of `CCCC[N+](CCCC)(CCCC)CCCC.[Br-]` [tetrabutylammonium bromide] + CO, the viscosity ([1]; 298.15 K, c1 = 0.02) is reported as 0.5542 ± 0.012 mPa·s, the viscosity ([1]; 298.15 K, c1 = 0.04) is reported as 0.581 ± 0.012 mPa·s and the viscosity ([1]; 298.15 K, c1 = 0.05) is reported as 0.5973 ± 0.013 mPa·s. The mass density ([1]; 298.15 K, c1 = 0.02) was 790.69 ± 1 kg/m3, the mass density ([1]; 298.15 K, c1 = 0.04) was 792.74 ± 1 kg/m3 and the mass density ([1]; 298.15 K, c1 = 0.05) was 794.89 ± 1 kg/m3. The viscosity ([1]; 308.15 K, c1 = 0.02) was 0.4951 ± 0.01 mPa·s, the viscosity ([1]; 308.15 K, c1 = 0.04) was 0.5135 ± 0.011 mPa·s and the viscosity ([1]; 308.15 K, c1 = 0.05) was 0.5274 ± 0.011 mPa·s. It also gave a mass density ([1]; 308.15 K, c1 = 0.02) of 780.94 ± 1 kg/m3, a mass density ([1]; 308.15 K, c1 = 0.04) of 783.43 ± 1 kg/m3 and a mass density ([1]; 308.15 K, c1 = 0.05) of 785.33 ± 1 kg/m3. For the same compound, the viscosity ([1]; 318.15 K, c1 = 0.02) was 0.439 ± 0.0093 mPa·s, the viscosity ([1]; 318.15 K, c1 = 0.04) was 0.4469 ± 0.0095 mPa·s and the viscosity ([1]; 318.15 K, c1 = 0.05) was 0.4584 ± 0.0097 mPa·s. It also gave a mass density ([1]; 318.15 K, c1 = 0.02) of 771.06 ± 1 kg/m3, a mass density ([1]; 318.15 K, c1 = 0.04) of 773.92 ± 1 kg/m3 and a mass density ([1]; 318.15 K, c1 = 0.05) of 775.68 ± 1 kg/m3.

For `CO` [methanol], the viscosity ([2]; 298.15 K) was 0.5451 ± 0.011 mPa·s, the mass density ([2]; 298.15 K) was 786.62 ± 1 kg/m3 and the viscosity ([2]; 308.15 K) was 0.476 ± 0.01 mPa·s. The mass density ([2]; 308.15 K) was 777.18 ± 1 kg/m3, the viscosity ([2]; 318.15 K) was 0.4183 ± 0.0089 mPa·s and the mass density ([2]; 318.15 K) was 767.74 ± 1 kg/m3.

For `CO` [methanol] + CCCC[N+](CCCC)(CCCC)CCCC.[Br-], the viscosity ([1]; 298.15 K, c2 = 0) was 0.5451 ± 0.011 mPa·s, the mass density ([1]; 298.15 K, c2 = 0) was 786.62 ± 1 kg/m3 and the viscosity ([1]; 308.15 K, c2 = 0) was 0.476 ± 0.01 mPa·s. For the same compound, the mass density ([1]; 308.15 K, c2 = 0) was 777.18 ± 1 kg/m3, the viscosity ([1]; 318.15 K, c2 = 0) was 0.4183 ± 0.0089 mPa·s and the mass density ([1]; 318.15 K, c2 = 0) was 767.74 ± 1 kg/m3.
